Data taken from patent US9187784B2, “EphA4 is a disease modifier in motor neuron disease” (VIB VZW, priority 2011, dated 2015).
Marks after values point to notes of the source that are not given here.

System: mutant SOD1-overexpressing fish
Assay: mutant SOD1-induced motor axonopathy in zebrafish embryos (percentage affected embryos, motor axon length)
Assay type: in vivo
From the text: FIG. 1: EphA4 knockdown rescues mutant SOD1-induced motor axonopathy. […] Abnormal branching is indicated with arrowhead. Y-axes show motor axon length of zebrafish embryos expressing wild-type SOD1 (black bar, Panels D-G) or mutant SOD1 (white bar, Panels D-G). Knockdown of RTK2 in SOD1A4V- (Panel D), SOD1G93A- (Panel E) and SOD1G37R- (Panel F) expressing fish was established by co-injection of increasing amounts of atg-RTK2 morpholino (shaded bars). RTK1 expression was inhibited in SOD1A4V-expressing fish by co-injection of atg-RTK1 morpholino (shaded bars, Panel G). Ctr-RTK2 and ctr-RTK1 were used as control. ANOVA and Bonferroni's multiple comparison tests were used for statistical analysis. Comparing axonal length in SOD1A4V fish injected with ctr-RTK2 (n=39) vs. different doses atg-RTK2: 3 ng (n=43, p=0.0059), 4.5 ng (n=37, p=0.0016, Panel D), SOD1G93A: ctr-RTK2 (n=60) vs. atg-RTK2: 1.5 ng (n=55, p=0.015), 3 ng (n=51, p=2.82×10-9), 4.5 ng (n=46, p=2.22×10-15, Panel E), SOD1G37R: ctr-RTK2 (n=37) vs. atg-RTK2: 3 ng (n=25, p=0.027), 4.5 ng (n=36, p=0.0018, Panel F) and SOD1A4V: ctr-RTK1 (n=49) vs. atg-RTK1: 1.5 ng (n=51, p=2.51×10-7), 3 ng (n=64, p=7.99×10-10), 4.5 ng (n=54, p<1×10-20, Panel G). Western blot of SOD1WT or SOD1A4V (1.76 ng) expressing zebrafish embryos (30 hpf), co-injected with either ctr-RTK1 or atg-RTK1 (4.5 ng). Sixty embryos were used per group with actin as the loading control (H). Immunostaining of rtk1 (green) in rhombomeres 3 and 5 and of ephrin-b2 (magenta) in rhombomere 4 in zebrafish embryos injected with either ctr-RTK1 or atg-RTK1 (4.5 ng). RTK1-depleted embryos show disorganized rhombomere boundaries (arrowhead, I, Scale bar 50 μm). Error bars are s.e.m.
FIG. 2: RTK2 knockdown protects motor axons against SOD1^A4V-induced injury. Effect of RTK2 knockdown, established by injection of splice-rtk2 morpholino, on the motor axon length of SOD1^A4V-expressing zebrafish embryos (30 hpf). SOD1^WT-expressing fish and a non-functional five-base pair-mismatch control morpholino (ctr-RTK2) were used as control (Panel A). ANOVA and Bonferroni's multiple comparison tests were used for statistical analysis: SOD1^A4V/ctr-RTK2 (n=56) vs. SOD1^A4V/spl-RTK2 (n=60, 1.79×10^−4). Spl-RTK2 was designed against the exon 2 splice site of the zebrafish RTK2 pre-mRNA and alternatively skipped out exon 2. RT-PCR on non-transgenic fish (lane 1), ctr-RTK2-injected fish (lane 2) and spl-RTK2-injected fish (lane 3) at 30 hpf. Functional RTK2 mRNA, containing exon 2, is indicated by the 818-bp product (upper band) while non-functional RTK2 mRNA, lacking exon 2 is indicated by the 156-bp product (lower band), 60 embryos each group (Panel B). Error bars are s.e.m.
FIG. 12: Pharmacological inhibition of EphA4 receptor signaling protects against mutant SOD1 pathology in vivo. Effect of treatment with Compound 1 (C1, 500 μM) on the motor axon length of zebrafish embryos (30 hpf). DMSO (1/250 dilution) was used as control (Panel A). ANOVA and Bonferroni's multiple comparison tests were used for statistical analysis: SOD1^A4V/C1 (n=68) vs. SOD1^A4V/DMSO (n=76, p=3.54×10^−5). Effect of KYL-peptide (3 mM) treatment of 60-day-old SOD1^G93A rats on disease onset (Panel B) and survival (Panel C). Artificial CSF (ACSF) was used as control. Average disease onset: 133 days (treated, n=21) versus 125 days (control, n=17, T-test p=0.044). Average survival: 148 days (treated, n=21) versus 139 days (controls, n=17, T-test p=0.041). Error bars are s.e.m.
Effect of RTK2 knockdown (established by injection of atg-RTK2 morpholino) on the percentage of affected wild-type SOD1 or mutant SOD1 (A4V, G93A, G37R) zebrafish embryos (30 hpf). Ctr-RTK2 morpholino was used as control. An embryo was considered as affected when it had more than 10% abnormally branched motor axons. Significance of mtSOD1/ctr-RTK2 (4.5 ng) vs. mtSOD1/atg-RTK2 (4.5 ng) was determined by Mann-Whitney test, * p=0.0075, ° p=0.039 and # p=0.0052. […]

Compound | % affected fish (Table 4, SOD1A4V fish, morpholino 1.5 ng) | % affected fish (Table 4, SOD1A4V fish, morpholino 3 ng) | % affected fish (Table 4, SOD1A4V fish, morpholino 4.5 ng) | % affected fish (Table 4, SOD1WT fish, morpholino 4.5 ng) | % affected fish (Table 4, SOD1A4V fish, C1 500 μM in the water) | % affected fish (Table 4, SOD1WT fish, C1 500 μM in the water)
5′-CTGTGAACACAAGCGCAGCCATTGG-′3 (all phosphorodiamidate morpholino (PMO)) [atg-RTK1] | 38 (24) % | 22 (33) % | 8* (26) % | 14 (14) % | – | –
Cc1ccc(C)n1-c1ccc(C(=O)O)c(O)c1 [Compound C1] | – | – | – | – | 11° (26) % | 15 (32) %
